system: Huh7 cells containing HCV replicons with an integrated luciferase reporter gene; test: HCV Replicon Assay (luciferase reporter); format: cell-based; details: Hepatitis C virus, Huh-7, 48 h, read-out: EC50 nM
Protocol: Huh7 cells containing HCV replicons with an integrated luciferase reporter gene are maintained at 37° C. in 5% CO2 in Dulbecco's modified Eagle's medium (DMEM; Mediatech, Herndon, Va.) containing 10% heat-inactivated fetal bovine serum (FBS; Mediatech, Herndon, Va.), 2 mM L-glutamine (Cambrex Bioscience, Walkersville, Md.), 1% non essential amino acids (Lonza, Walkersville, Md.), 50 IU/mL penicillin (Mediatech, Herndon, Va.), […] streptomycin (Mediatech, Herndon, Va.) and 0.5 mg/mL G418 (Promega, Madison, Wis.). Cells are sub-divided 1:3 or 4 every 2-3 days.
24 h prior to the assay, Huh7 cells containing sub-genomic HCV replicons are collected, counted, and plated in Nunclon 96-well tissue culture plates (ThermoFisher, Rochester, N.Y.) at 5000 cells/well in […] standard maintenance medium (above) and incubated in the conditions above. To initiate the assay, culture medium is removed, and replaced with […] maintenance media lacking G418. Test compounds are serially diluted three-fold in dimethyl sulfoxide (DMSO) in two duplicate rows for each EC50 determination. These compound solutions are diluted ten-fold in DMEM lacking serum and G418. […] of these compound solutions in media are added to duplicate tissue culture plates. The final volume is 100 μL with a DMSO concentration of 1%. Compound concentrations are adjusted to appropriately define a dose response curve. Typical dilution series range from […] to 1.69 nM final concentrations to 1 nM to 16.9 fM final. Plates are incubated at 37° C. for approximately 48 hr.
Following incubation, media is removed from one of the two duplicate plates and replicon-reporter luciferase activity is measured using a Bright-Glo luciferase assay kit (Promega, Madison, Wis.) according to manufacturer's instructions. Semi-log plots of luciferase activity versus the logarithm of compound concentration are fit to a 4-parameter logistic function using XLfit software (IDBS Inc., Guildford, UK) to determine EC50.

SMILES	EC50 [nM]
COC(=O)N[C@H](C(=O)N1CCC[C@H]1C(=O)Nc1ccc(NC(=O)c2ccc(NC(=O)[C@@H]3CCCN3C(=O)[C@@H](NC(=O)OC)C(C)C)cc2)cc1)C(C)C [Compound 102]	10 to 100
COC(=O)N[C@H](C(=O)N1CCC[C@H]1C(=O)Nc1ccc(NC(=O)c2ccc(NC(=O)[C@@H]3CCCN3C(=O)Cc3ccccc3)cc2)cc1)C(C)C [Compound 103]	10 to 100
COC(=O)N[C@H](C(=O)N1CCC[C@H]1C(=O)Nc1ccc(C(=O)Nc2ccc(NC(=O)[C@@H]3CCCN3C(=O)Cc3ccccc3)cc2)cc1)C(C)C [Compound 104]	10 to 100
O=C(Nc1ccc(-c2ccc3nc(NC(=O)[C@@H]4CCCN4C(=O)Cc4ccccc4)ccc3c2)cn1)[C@@H]1CCCN1C(=O)Cc1ccccc1 [Compound 216]	< 10
O=C(Cc1ccccc1)N1CCC[C@H]1c1ncc(-c2ccc(-c3ccc(-c4cnc([C@@H]5CCCN5C(=O)Cc5ccccc5)[nH]4)c4ccccc34)cc2)[nH]1 [Compound 302]	< 10
COC(=O)N[C@H](C(=O)N1CCC[C@H]1c1ncc(-c2ccc(-c3ccc(-c4cnc([C@@H]5CCCN5C(=O)Cc5ccccc5)[nH]4)c4ccccc34)cc2)[nH]1)C(C)C [Compound 307]	< 10

same assay, conditions: Hepatitis C virus, Huh-7; Huh7 HCV replicon cells, luciferase activity, approximately 48 hr incubation; read-out: EC50

SMILES	EC50 [nM]
O=C(Nc1ccc(NC(=O)[C@@H]2CCCN2C(=O)Cc2ccccc2)cc1)c1ccc(NC(=O)[C@@H]2CCCN2C(=O)Cc2ccccc2)cc1 [Compound 101]	10 to 100
COC(=O)N[C@H](C(=O)N1CCC[C@H]1C(=O)Nc1ccc(-c2ccc3cc(NC(=O)[C@@H]4CCCN4C(=O)[C@@H](NC(=O)OC)C(C)C)ccc3c2)cc1)C(C)C [Compound 201]	< 10
COC(=O)N[C@H](C(=O)N1CCC[C@H]1C(=O)Nc1ccc2cc(-c3ccc(NC(=O)[C@@H]4CCCN4C(=O)Cc4ccccc4)cc3)ccc2c1)C(C)C [Compound 203]	< 10
COC(=O)N[C@H](C(=O)N1CCC[C@H]1C(=O)Nc1ccc2cc(NC(=O)[C@@H]3CCCN3C(=O)[C@@H](NC(=O)OC)C(C)C)ccc2c1)C(C)C [Compound 204]	10 to 100
COC(=O)N[C@H](C(=O)N1CCC[C@H]1C(=O)Nc1ccc2cc(NC(=O)[C@@H]3CCCN3C(=O)Cc3ccccc3)ccc2c1)C(C)C [Compound 205]	> 100
O=C(Nc1ccc2cc(-c3ccc(NC(=O)[C@@H]4CCCN4C(=O)Cc4ccccc4)nc3)ccc2c1)[C@@H]1CCCN1C(=O)Cc1ccccc1 [Compound 206]	< 10
COC(=O)N[C@H](C(=O)N1CCC[C@H]1C(=O)Nc1ccc2cc(-c3ccc(NC(=O)[C@@H]4CCCN4C(=O)[C@@H](NC(=O)OC)C(C)C)nc3)ccc2c1)C(C)C [Compound 207]	< 10
COC(=O)N[C@H](C(=O)N1CCC[C@H]1C(=O)Nc1ccc(-c2ccc3cc(NC(=O)[C@@H]4CCCN4C(=O)Cc4ccccc4)ccc3c2)cn1)C(C)C [Compound 208]	< 10
COC(=O)N[C@H](C(=O)N1CCC[C@H]1C(=O)Nc1ccc2cc(-c3ccc(NC(=O)[C@@H]4CCCN4C(=O)Cc4ccccc4)nc3)ccc2c1)C(C)C [Compound 209]	< 10
O=C(Nc1ccc2cc(NC(=O)[C@@H]3CCCN3C(=O)Cc3ccccc3)ccc2c1)[C@@H]1CCCN1C(=O)Cc1ccccc1 [Compound 210]	> 100
O=C(Nc1ccc(-c2ccc3cc(NC(=O)[C@@H]4CCCN4C(=O)Cc4ccccc4)ccc3c2)cc1)[C@@H]1CCCN1C(=O)Cc1ccccc1 [Compound 211]	< 10
COC(=O)N[C@H](C(=O)N1CCC[C@H]1C(=O)Nc1ccc2cc(-c3cnc(NC(=O)[C@@H]4CCCN4C(=O)[C@@H](NC(=O)OC)C(C)C)nc3)ccc2n1)C(C)C [Compound 212]	< 10
COC(=O)N[C@H](C(=O)N1CCC[C@H]1C(=O)Nc1ncc(-c2ccc3nc(NC(=O)[C@@H]4CCCN4C(=O)Cc4ccccc4)ccc3c2)cn1)C(C)C [Compound 214]	10 to 100
COC(=O)N[C@H](C(=O)N1CCC[C@H]1C(=O)Nc1ccc(-c2ccc3nc(NC(=O)[C@@H]4CCCN4C(=O)[C@@H](NC(=O)OC)C(C)C)ccc3c2)cn1)C(C)C [Compound 217]	< 10
COC(=O)N[C@H](C(=O)N1CCC[C@H]1C(=O)Nc1ccc2cc(-c3cnc(NC(=O)[C@@H]4CCCN4C(=O)[C@@H](NC(=O)OC)C(C)C)nc3)ccc2c1)C(C)C [Compound 221]	< 10
COC(=O)N[C@H](C(=O)N1CCC[C@H]1c1nc(-c2ccc(-c3ccc4cc(-c5c[nH]c([C@]6(C)CCCN6C(=O)[C@@H](NC(=O)OC)C(C)C)n5)ccc4c3)cc2)c[nH]1)C(C)C [Compound 222]	< 10
COC(=O)N[C@H](C(=O)N1CCC[C@H]1c1ncc(-c2ccc(-c3ccc(-c4cnc([C@@H]5CCCN5C(=O)[C@@H](NC(=O)OC)C(C)C)[nH]4)c4ccccc34)cc2)[nH]1)C(C)C [Compound 301]	< 10

SMILES	EC50 [nM]
COC(=O)N[C@H](C(=O)N1CCC[C@H]1C(=O)OCC(=O)c1ccc(-c2ccc(C(=O)COC(=O)[C@@H]3CCCN3C(=O)[C@@H](NC(=O)OC)C(C)C)c3c2CCCC3)cc1)C(C)C [Compound 303]	10 to 100
COC(=O)NC(C(=O)N1CCC[C@H]1c1nc(-c2ccc(-c3ccc(-c4c[nH]c([C@@H]5CCCN5C(=O)[C@@H](NC(=O)OC)C(C)C)n4)c4c3CCCC4)cc2)c[nH]1)C(C)C (stereo partly shown) [Compound 304]	< 10
COC(=O)N[C@H](C(=O)N1CCC[C@H]1C(=O)OCC(=O)c1ccc(-c2ccc(C(=O)COC(=O)[C@@H]3CCCN3C(=O)[C@@H](NC(=O)OC)C(C)C)c3c2CCC3)cc1)C(C)C [Compound 305]	> 100
COC(=O)N[C@H](C(=O)N1CCC[C@H]1c1nc(-c2ccc(-c3ccc(-c4c[nH]c([C@@H]5CCCN5C(=O)[C@@H](NC(=O)OC)C(C)C)n4)c4c3CCC4)cc2)c[nH]1)C(C)C [Compound 306]	< 10
COC(=O)N[C@H](C(=O)N1CCC[C@H]1c1nc(-c2ccc(-c3ccc(-c4c[nH]c([C@@H]5CCCN5C(=O)Cc5ccccc5)n4)cc3)c3ccccc23)c[nH]1)C(C)C [Compound 308]	< 10
COC(=O)N[C@H](C(=O)N1CCC[C@H]1c1ncc(-c2ccc(-c3ccc(-c4cnc([C@@H]5CCCN5C(=O)[C@@H](NC(=O)OC)C(C)C)[nH]4)c4c3OCCO4)cc2)[nH]1)C(C)C [Compound 309]	< 10
COC(=O)N[C@H](C(=O)N1CCC[C@H]1c1nc(-c2ccc(-c3ccc(-c4c[nH]c([C@@H]5CCCN5C(=O)[C@@H](NC(=O)OC)C(C)C)n4)c4sc(C)nc34)cc2)c[nH]1)C(C)C [Compound 310]	< 10
COC(=O)N[C@H](C(=O)N1CCC[C@H]1c1nc(-c2ccc(-c3ccc(-c4c[nH]c([C@@H]5CCCN5C(=O)[C@@H](NC(=O)OC)C(C)C)n4)c4sccc34)cc2)c[nH]1)C(C)C [Compound 311]	< 10
COC(=O)N[C@H](C(=O)N1CCC[C@H]1c1nc(-c2ccc(-c3ccc(-c4c[nH]c([C@@H]5CCCN5C(=O)[C@@H](NC(=O)OC)C(C)C)n4)c4c3OCO4)cc2)c[nH]1)C(C)C [Compound 312]	< 10
COC(=O)N[C@H](C(=O)N1CCC[C@H]1c1nc(-c2ccc(-c3ccc(-c4c[nH]c([C@@H]5CCCN5C(=O)[C@@H](NC(=O)OC)C(C)C)n4)c4cccnc34)cc2)c[nH]1)C(C)C [Compound 314]	< 10
COC(=O)N[C@H](C(=O)N1CCC[C@H]1c1nc(-c2ccc(-c3ccc(-c4c[nH]c([C@@H]5CCCN5C(=O)[C@@H](NC(=O)OC)C(C)C)n4)c4ncccc34)cc2)c[nH]1)C(C)C [Compound 315]	< 10
COC(=O)N[C@H](C(=O)N1CCC[C@H]1c1nc(-c2ccc(-c3ccc(-c4c[nH]c([C@@H]5CCCN5C(=O)[C@@H](NC(=O)OC)C(C)C)n4)c4oc(C)nc34)cc2)c[nH]1)C(C)C [Compound 323]	< 10
COC(=O)N[C@@H](C(=O)N1CCC[C@H]1c1ncc(-c2ccc(-c3ccc(-c4cnc([C@@H]5CCCN5C(=O)[C@H](NC(=O)OC)C(C)C)[nH]4)c4ccccc34)cc2)[nH]1)C(C)C [Compound 324]	< 10
COC(=O)NCC(=O)N1CCC[C@H]1c1ncc(-c2ccc(-c3ccc(-c4cnc([C@@H]5CCCN5C(=O)CNC(=O)OC)[nH]4)c4ccccc34)cc2)[nH]1 [Compound 325]	< 10
O=S(=O)(Cc1ccccc1)N1CCC[C@H]1c1ncc(-c2ccc(-c3ccc(-c4cnc([C@@H]5CCCN5S(=O)(=O)Cc5ccccc5)[nH]4)c4ccccc34)cc2)[nH]1 [Compound 326]	> 100
COC(=O)N[C@H](C(=O)N1CCC[C@H]1c1nc(-c2ccc(-c3ccc(-c4c[nH]c([C@@H]5CCCN5C(=O)[C@@H](NC(=O)OC)C(C)C)n4)c4c3ccn4C)cc2)c[nH]1)C(C)C [Compound 327]	< 10
COC(=O)N[C@H](C(=O)N1CCC[C@@]1(C)c1nc(-c2ccc(-c3ccc(-c4c[nH]c([C@]5(C)CCCN5C(=O)[C@@H](NC(=O)OC)C(C)C)n4)c4c3OCO4)cc2)c[nH]1)C(C)C [Compound 328]	< 10

Reference: patent US20110152246A1, “NOVEL INHIBITORS OF HEPATITIS C VIRUS REPLICATION” (InterMune, Inc., priority 2009, published 2011)
